Reference: ChEMBL document CHEMBL1124315, “N- and 2-substituted N-(phenylsulfonyl)glycines as inhibitors of rat lens aldose reductase” (J Med Chem, 1989)

Target: Aldo-keto reductase family 1 member B1 (Rattus norvegicus, UniProt P07943)
Test: Inhibitory concentration against aldose reductase obtained from rat lens

| Structure (SMILES) | IC50 |
| --- | --- |
| Cc1ccc(S(=O)(=O)N[C@H](C(=O)O)c2ccccc2)cc1 | 8.9 µM |
| O=C(O)[C@@H](NS(=O)(=O)c1ccc([N+](=O)[O-])cc1)c1ccccc1 | 8.6 µM |
| COc1ccc(S(=O)(=O)N[C@H](C(=O)O)c2ccccc2)cc1 | 13 µM |
| O=C(O)[C@H](NS(=O)(=O)c1ccc([N+](=O)[O-])cc1)c1ccccc1 | 980 µM |
| O=C(O)[C@H](NS(=O)(=O)c1ccc(F)cc1)c1ccccc1 | 960 µM |
| Cc1ccc(S(=O)(=O)N[C@@H](C(=O)O)c2ccccc2)cc1 | 90 µM |
| COc1ccc(S(=O)(=O)N[C@@H](C(=O)O)c2ccccc2)cc1 | 36 µM |
| O=C(O)[C@@H](NS(=O)(=O)c1ccc(F)cc1)c1ccccc1 | 25 µM |
| CN(c1ccccc1C(=O)O)S(=O)(=O)c1ccc([N+](=O)[O-])cc1 | > 2000 µM |
| O=C(O)c1ccccc1NS(=O)(=O)c1cccc2ccccc12 | 8.3 µM |
| O=C(O)CNS(=O)(=O)c1ccc(F)cc1 | 43 µM |
| Cc1ccc(S(=O)(=O)NCC(=O)O)cc1 | 32 µM |
| O=C(O)CNS(=O)(=O)c1ccc2ccccc2c1 | 0.4 µM |
| O=C(O)CNS(=O)(=O)c1ccc([N+](=O)[O-])cc1 | 79 µM |
| O=C(O)CNS(=O)(=O)c1ccc(Cl)cc1 | 130 µM |
| COc1ccc(S(=O)(=O)N(C)c2ccccc2C(=O)O)cc1 | > 2000 µM |
| Cc1ccc(S(=O)(=O)Nc2ccccc2C(=O)O)cc1 | 69 µM |
| Nc1ccc(S(=O)(=O)Nc2ccccc2C(=O)O)cc1 | 7.9 µM |
| COc1ccc(S(=O)(=O)Nc2ccccc2C(=O)O)cc1 | 130 µM |
| O=C(O)c1ccccc1NS(=O)(=O)c1ccc2ccccc2c1 | 5.7 µM |
| O=C(O)CNS(=O)(=O)c1ccc(NC(=O)c2ccccc2)cc1 | 0.88 µM |
| O=C(O)c1ccccc1NS(=O)(=O)c1ccc(Cl)cc1 | 130 µM |
| O=C(O)CNS(=O)(=O)c1ccccc1[N+](=O)[O-] | 13 µM |
| Nc1ccccc1S(=O)(=O)NCC(=O)O | 37 µM |
| O=C(O)c1ccccc1NS(=O)(=O)c1ccc([N+](=O)[O-])cc1 | 390 µM |
| O=C(O)c1ccccc1NS(=O)(=O)c1ccc(Br)cc1 | 85 µM |
| COc1ccc(S(=O)(=O)NCC(=O)O)cc1 | 31 µM |
| O=C(O)C(NS(=O)(=O)c1ccc2ccccc2c1)c1ccccc1 (single isomer, unassigned; 6m) | 230 µM |

Second part, the compound after the results:

| IC50 | Structure (SMILES) |
| --- | --- |
| 340 µM | O=C(O)[C@H](NS(=O)(=O)c1ccc(Cl)cc1)c1ccccc1 |
| 11 µM | O=C(O)[C@@H](NS(=O)(=O)c1ccccc1)c1ccccc1 |
| 7.1 µM | O=C(O)[C@@H](NS(=O)(=O)c1ccc(Cl)cc1)c1ccccc1 |
| 460 µM | O=C(O)[C@H](NS(=O)(=O)c1ccccc1)c1ccccc1 |
| 8.7 µM | O=C(O)CN(c1cccc([N+](=O)[O-])c1)S(=O)(=O)c1ccccc1 |
| 26 µM | Cc1ccc(N(CC(=O)O)S(=O)(=O)c2ccccc2)cc1 |
| 65 µM | O=C(O)c1ccccc1NS(=O)(=O)c1ccccc1 |
| 16 µM | O=C(O)CN(c1ccccc1)S(=O)(=O)c1ccc(Cl)cc1 |
| 1.3 µM | O=C(O)CN(c1ccccc1)S(=O)(=O)c1cccc([N+](=O)[O-])c1 |
| 27 µM | O=C(O)CN(c1ccc(Cl)cc1)S(=O)(=O)c1ccccc1 |
| 9.3 µM | Nc1ccc(S(=O)(=O)N(CC(=O)O)c2ccccc2)cc1 |
| 13 µM | O=C(O)CN(c1cccc(Cl)c1)S(=O)(=O)c1ccccc1 |
| 22 µM | O=C(O)CN(c1ccc(F)cc1)S(=O)(=O)c1ccccc1 |
| 3.6 µM | O=C(O)CN(c1ccccc1)S(=O)(=O)c1ccccc1[N+](=O)[O-] |
| 4.5 µM | O=C(O)CN(c1ccccc1)S(=O)(=O)c1ccc2ccccc2c1 |
| 0.38 µM | O=C(O)CN(c1ccccc1)S(=O)(=O)c1ccc(NC(=O)c2ccccc2)cc1 |

| IC50 | Structure (SMILES) |
| --- | --- |
| 400 µM | CN(c1ccccc1C(=O)O)S(=O)(=O)c1ccc2ccccc2c1 |
| 29 µM | O=C(O)CN(c1ccccc1)S(=O)(=O)c1ccccc1 |
| 4.4 µM | O=C(O)CN(c1ccccc1)S(=O)(=O)c1ccc([N+](=O)[O-])cc1 |
| 130 µM | O=C(O)CNS(=O)(=O)c1ccccc1 |
| 1.8 µM | COc1ccc(S(=O)(=O)N(CC(=O)O)c2ccccc2)cc1 |
| 7.6 µM | O=C(O)CN(c1ccccc1Cl)S(=O)(=O)c1ccccc1 |
| 26 µM | O=C(O)CN(c1ccccc1)S(=O)(=O)c1ccc(F)cc1 |
| 27 µM | Nc1cccc(S(=O)(=O)N(CC(=O)O)c2ccccc2)c1 |
| 68 µM | Nc1ccc(N(CC(=O)O)S(=O)(=O)c2ccccc2)cc1 |
| 340 µM | Cc1ccccc1N(CC(=O)O)S(=O)(=O)c1ccccc1 |
| 27 µM | Cc1cccc(N(CC(=O)O)S(=O)(=O)c2ccccc2)c1 |
| 38 µM | COc1ccc(N(CC(=O)O)S(=O)(=O)c2ccccc2)cc1 |
| 67 µM | Nc1ccccc1S(=O)(=O)N(CC(=O)O)c1ccccc1 |
| 14 µM | Cc1ccc(S(=O)(=O)N(CC(=O)O)c2ccccc2)cc1 |
| 2.5 µM | O=C(O)C(NS(=O)(=O)c1ccc2ccccc2c1)c1ccccc1 (single isomer, unassigned; 6n) |
